Measurements taken from US20180296523A1, “USE OF POLYMETHOXYLATED FLAVONES TO AMELIORATE CIRCADIAN RHYTHM DISORDERS” (THE BOARD OF REGENTS OF THE UNIVERSITY OF TEXAS SY, priority 2017, published 2018).
Entries after “also recorded” stand apart in the source; their conditions may differ.

Tests used:
RORγ-LBD = biological target: T1, RORγ-LBD (Homo sapiens, UniProt P51449); test: Radioligand receptor binding assay with 25-[3H]-OHC, RORγ-LBD; conditions: in the presence of 4.5 nM 25-[3H]-OHC
T1 sequence (P51449 269-508 limits assumed): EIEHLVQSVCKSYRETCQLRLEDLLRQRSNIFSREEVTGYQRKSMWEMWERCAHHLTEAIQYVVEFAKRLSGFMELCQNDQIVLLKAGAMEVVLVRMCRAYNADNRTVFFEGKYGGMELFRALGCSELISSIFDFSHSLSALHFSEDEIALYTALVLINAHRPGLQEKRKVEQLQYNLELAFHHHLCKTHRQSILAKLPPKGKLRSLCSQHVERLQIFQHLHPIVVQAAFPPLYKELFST
Experimental: Ligand binding was determined by filter binding assays to calculate the Kd value. […] Ki was determined using the Cheng-Prusoff equation.

[1] = test system: HFD-fed WT and Clock^Δ19/Δ19 C57BL/6J mice; test: Diet-induced obese (DIO) mouse model, HFD-fed WT and Clock^Δ19/Δ19 mice; type: in vivo; conditions: for body weight gain: 10-week treatment
Experimental: For diet-induced obesity, male mice at 6 weeks of age were fed with HFD (D12492, Research Diets) until the end of the experimental protocol. The mice were treated with either vehicle (DMSO) or NOB (200 mg/kg body weight) via oral gavage every other day, in the time window of ZT8-10, throughout the experimental period. An every-other-day dosing regimen was chosen at the indicated level based on several reasons. First, previous in vivo studies have used similar overall amounts for mouse treatment (100-125 mg/kg/day) (Lee et al., 2013; Li et al., 2006). The oral gavage procedure was done in late afternoon (ZT8-10) prior to the start of their active phase, reasoning that this may coincide with the time-window adopted by previous studies. Second, daily dosing was not chosen to avoid entraining the experimental mice with the procedure per se as an artificial zeitgeber. Furthermore, pilot pharmacokinetic (PK) assays were done under a single-dose condition (Fig. S7). […] Therefore, it was reasoned that every-other day dosing helps avoid any incomplete daily clearance over the chronic experimental period (10 weeks). Weekly body weight was monitored in different treatment mice for 10 weeks. Body mass composition was measured at the end of experiments using a […] spectrometer (Bruker Optics, Texas) (Garcia et al., 2013). A control group of mice were fed with regular chow diet (Purina 5001) in parallel with the two treatment groups in HFD. For db/db and db/db Clock^[…]/[…] mice, male mice at 6-8 weeks of age were group-housed (2-3/cage) and maintained on regular chow diets. Mice were subjected to oral gavage with either DMSO or NOB as described above. Energy expenditure was examined by measuring oxygen consumption with indirect calorimetry as described (Chutkow et al., 2010; Daniels et al., 2010). After 8 weeks of treatments described above, mice from each group were placed at room temperature (22° C.-24° C.) in the chambers of a Comprehensive Lab Animal Monitoring System (CLAMS, Columbus Instruments, Columbus, Ohio). After mice adapted to the metabolic chamber, volume of O2 consumption and CO2 production was continuously recorded over a 24-hr period. Average O2 consumption was calculated and compared between different treatments. Food and water were provided ad libitum. To measure food intake, food pellets were weighted every three hours over a 24-hr period in mice treated as above. The daily food intake was calculated from averaged food intake of 3 independent experiments. Serum samples were obtained at ZT2 from treated mice as previously described (Jeong et al., 2015). Hepatic triglyceride and cholesterol were extracted as previously described (Liu et al., 2012). The triglyceride and cholesterol levels in liver and serum were assessed by Serum Triglyceride Determination Kit (Sigma) and Cholesterol Assay Kit (Cayman), respectively. The assay plates were read by a TECAN M200 instrument (Tecan) following the manufacturer's instructions. Glucose tolerance test (GTT) and insulin tolerance test (ITT) were performed largely as described (He et al., 2015; Jeong et al., 2015). Briefly, after overnight and 5-hr fasting, GTT and ITT were conducted at ZT2 and ZT8 respectively. Glucose levels were measured from tail blood before and 15, 30, 60, or 120 min after injection of either 1 g/kg glucose or 0.75 U/kg insulin (Sigma) at ZT2 and ZT8 respectively by using the ONETOUCH UltraMini blood glucose monitoring system (LifeScan). Serum insulin levels were measured with the Rat/Mouse Insulin Elisa kit (Millipore) according to the manufacturer's instructions. The plasma samples were collected at ZT2 as described above for lipid assays. For microscopic analysis of lipid accumulation in liver, tissue samples were collected and immediately embedded in Tissue-Tek OCT cryostat molds (Leica) and then frozen at -80° C. Tissue sections were stained in 0.5% Oil Red O and counterstained with Mayer's hematoxylin for 1 min. […]

[2] = test system: PER2::LucSV reporter fibroblast cells; test: Dose response validation of reporter rhythm in PER2::LucSV cells; type: cell-based, mouse
Experimental: The chemical screen for circadian clock modulators was conducted at the Chemical Genomics Core facility at the UTHSC-H. The in-house chemical library screened consists of compounds from NIH Clinical Collection, NCI collection and Microsource Spectrum Collection. The screening was conducted largely based on the protocol previously described (Chen et al., 2012). […] Cells were then incubated with 5 μM forskolin for 1-2 h followed by the addition of chemical compounds to the plates with robotic arms (Beckman), and then subjected to continuous monitoring over several days in a temperature-controlled EnVision microplate reader (Perkin Elmer). Data analysis was carried out by using the MultiCycle software (Actimetrics) for measurement of period, phase, and amplitude. […] Tissue explant experiments were conducted as described previously (Chen et al., 2012).

[3] = test system: Bmal1 promoter with RORα/γ knockdown; test: Bmal1 promoter-driven luciferase reporter in U2OS cells; type: cell-based
[4] = test system: WT and Clock^Δ19/Δ19 mice; test: Circadian locomotor (wheel-running) activity; type: in vivo, mouse
Source text: RC-fed WT, HFD-fed WT and Clock^[…]/[…] mice with NOB or Vehicle treatment were used for circadian locomotor activity experiments. Briefly, mice were first maintained for at least 2 weeks in a 12 hr:12 hr light:dark (LD) cycle, then released into the constant darkness, free-running condition. The mice were then maintained in constant darkness for another 2 weeks. Wheel-running data was downloaded as VitalView data files and analyzed with the […] and Actogram J program (Schmid et al., 2011; Zheng et al., 1999).

[5] = HFD-fed WT mice, serum and liver

C[C@@H]1O[C@@H](O[C@H]2[C@H](Oc3cc(O)c4c(c3)O[C@H](c3ccc(O)cc3)CC4=O)O[C@H](CO)[C@@H](O)[C@@H]2O)[C@H](O)[C@H](O)[C@H]1O [naringin, reference compound]
competitive binding to RORγ-LBD (RORγ-LBD): markedly diminished binding
difference of treatment effects between WT and Clock^Δ19/Δ19 mice ([1]; HFD-fed C57BL/6J mice): largely indistinguishable
blood insulin levels ([1]; HFD-fed Clock^Δ19/Δ19 mice): decreased to similar extents
glucose tolerance (GTT) ([1]; HFD-fed Clock^Δ19/Δ19 mice): modest effects on glucose tolerance
insulin sensitivity (ITT) ([1]; HFD-fed Clock^Δ19/Δ19 mice): modest effects on insulin sensitivity
fasting blood glucose levels ([1]; HFD-fed Clock^Δ19/Δ19 mice, daytime and nighttime): failed to reduce fasting blood glucose levels
fasting glucose levels ([1]; HFD-fed WT mice): reduced fasting blood glucose levels
glucose tolerance (GTT) ([1]; HFD-fed WT mice): modest effects on glucose tolerance
insulin sensitivity (ITT) ([1]; HFD-fed WT mice): modest effects on insulin sensitivity
blood insulin levels ([1]; HFD-fed WT mice, vs vehicle): decreased to similar extents
effects on body weight gain and lipid and glucose homeostasis ([1]; HFD-fed mice, compared with nobiletin): significantly attenuated effects
reporter luminescence ([2]; PER2::LucSV reporter cells): did not enhance the reporter luminescence

COc1ccc(-c2cc(=O)c3c(OC)c(OC)c(OC)c(OC)c3o2)cc1OC [nobiletin]
induction of Bmal1 reporter after knockdown of RORα/γ by siRNAs [3]: abrogated the nobiletin-mediated induction
competitive binding to RORγ-LBD (RORγ-LBD): direct binding; also recorded: robust competitive binding
wheel-running activity levels ([4]; HFD-fed Clock^Δ19/Δ19 mice): no significant difference in activity levels
wheel-running activity levels ([4]; HFD-fed WT mice, vs control treatment): greatly increased wheel-running activity levels
wheel-running activity and periodicity ([4]; RC-fed WT C57/6J mice): normal wheel-running activity and periodicity
lipid droplet formation in liver ([1]; DIO WT liver): essentially abolished lipid droplet formation
liver steatosis (H&E and Oil Red O staining) ([1]; DIO WT liver): strongly improved liver steatosis
adipocyte cell size ([1]; HFD-fed Clock^Δ19/Δ19 mice): essentially unchanged
energy expenditure ([1]; HFD-fed Clock^Δ19/Δ19 mice): no increase
fat mass ([1]; HFD-fed Clock^Δ19/Δ19 mice): essentially unchanged
food intake ([1]; HFD-fed Clock^Δ19/Δ19 mice): did not change food intake
glucose and lipid homeostasis ([1]; HFD-fed Clock^Δ19/Δ19 mice): did not significantly improve
respiratory quotient ([1]; HFD-fed Clock^Δ19/Δ19 mice): no increase
body weight gain ([1]; HFD-fed Clock^Δ19/Δ19 mice): very modest reduction in body weight gain
beneficial effect on liver steatosis ([1]; HFD-fed Clock^Δ19/Δ19 mice, compared with WT mice): markedly attenuated
fasting glucose levels ([1]; HFD-fed WT mice): lowered fasting glucose levels
fat mass (body mass composition) ([1]; HFD-fed WT mice): reduction in fat mass
glucose tolerance (GTT) ([1]; HFD-fed WT mice): significantly improved
insulin sensitivity (ITT) ([1]; HFD-fed WT mice): significantly improved
respiratory quotient ([1]; HFD-fed WT mice): increased
white adipose cell size ([1]; HFD-fed WT mice): reduction
body weight gain ([1]; HFD-fed WT mice, 200 mg/kg oral every other day, vs vehicle): significantly attenuated body weight gain
total cholesterol (TC) levels [1, 5]: significantly diminished
total triglyceride (TG) levels [1, 5]: significantly diminished
oxygen consumption (energy expenditure) ([1]; HFD-fed WT mice, throughout the circadian cycle): greatly elevated oxygen consumption
blood insulin levels ([1]; HFD-fed WT mice, vs vehicle): strongly reduced
food intake ([1]; HFD-fed WT mice, vs vehicle): not significantly altered
white adipose cell size ([1]; HFD-fed WT mice, listed as NOB): reduced visceral WAT cell size
amplitude of PER2::LucSV reporter rhythm [2]: robustly enhanced the amplitude
period of PER2::LucSV reporter rhythm [2]: lengthened the period in a dose-dependent manner
EC50 ([2]; Mus musculus, Fibroblast, PER2::LucSV reporter rhythm, read-out: estimated half maximal effective concentration): < 5 µM
